# According to US4154932A (priority 1977, dated 1979):
# Where two headings read alike, the source gives them in different places.
# How the values were obtained:
# [1] = system: phenylquinone induced writhings; assay: animal or person; details: for ED50: Mus musculus
# Experimental: In vivo testing was conducted on many of the compounds of the present invention.
# [2] = system: Straub Tail induced by oxymorphone; assay: Antagonism of oxymorphone-induced Straub Tail (antagonist activity); type: in vivo, mouse; details: for ED50: Mus musculus; for Oxymorphone-Induced Straub Tail po/sc: ratio of ED50 po/sc
# Experimental: ^2 Antagonism of Straub Tail induced by oxymorphone (2 mg/kg, s.c.) i
# [3] = Physical dependence liability in man (predicted from mouse models); details: prediction from the mouse test model
# Experimental: (§1) Buprenorphine and (-)XI were tested for physical dependence liability in mice. […] The compounds were then tested as substitutes for morphine in withdrawn morphine-dependent mice.
# [4] = system: withdrawn morphine-dependent mice; assay: Substitution for morphine in withdrawn morphine-dependent mice
# Experimental: as §1
# [5] = system: withdrawal jumping (abstinence); assay: Primary physical dependence test in mice (withdrawal jumping on naloxone challenge); details: repeated sc injections for two days
# Experimental: as §1
# Rat Writhing = Rat Writhing (analgetic activity); type: in vivo; details: Table 2; for ED50: Rattus norvegicus; for Rat Writhing po/sc: ratio of ED50 po/sc
# [6] = system: Morphine Antagonism Rat Tail Flick; assay: Morphine antagonism, Rat Tail Flick (antagonist activity); type: in vivo; details: Table 3; for ED50: Rattus norvegicus; for Morphine Antagonism Rat Tail Flick po/sc: ratio of ED50 po/sc
# Rat Vocalization = Rat Vocalization (analgetic activity); type: in vivo; details: Table 2; for ED50: Rattus norvegicus; for Rat Vocalization po/sc: ratio of ED50 po/sc
# [7] = Analgetic activity, overall comparison of Table 2; type: in vivo
# [8] = system: opioids, oxymorphone and morphine; assay: Antagonist activity, overall comparison of Table 3; type: in vivo
# Cough Response = assay: animal or person; type: in vivo, dog; details: for ED50: Canis lupus familiaris
# Source text: Comparative Antitussive Effects of (-)-XI, Butorphanol and
# Morphine Sulfate in the Unanesthetized Dog
# [9] = sc, read-out: Agonist Activity, Phenylquinone Writhing ED50
# [10] = sc, mice, Table 1, oxymorphone 2 mg/kg, s.c., read-out: Antagonist Activity, Oxymorphone Straub Tail ED50
# [11] = central, read-out: Analgetic activity ED50, Intraventricular
# [12] = po, read-out: Analgetic activity ED50, Mouse Writhing po
# [13] = sc, read-out: Analgetic activity ED50, Mouse Writhing sc
# [14] = po, read-out: Analgetic activity ED50, Rat Writhing po
# [15] = sc, read-out: Analgetic activity ED50, Rat Writhing sc
# [16] = po, read-out: Antagonist activity ED50, Morphine Antagonism Rat Tail Flick po
# [17] = sc, read-out: Antagonist activity ED50, Morphine Antagonism Rat Tail Flick sc
# [18] = po, read-out: Analgetic activity ED50, Rat Vocalization po
# [19] = sc, read-out: Analgetic activity ED50, Rat Vocalization sc
# [20] = po, Table 3, read-out: Antagonist activity ED50, Oxymorphone-Induced Straub Tail po
# [21] = sc, Table 3, read-out: Antagonist activity ED50, Oxymorphone-Induced Straub Tail sc
# [22] = po, unanesthetized dog, read-out: Oral antitussive ED50
# [23] = sc, unanesthetized dog, read-out: Antitussive ED50
# [24] = ratio of ED50 sc/intraventricular, Table 2
smiles,measurement,setting,value
"Oc1ccc2c(c1)[C@]13CCN(CC4CCC4)[C@H](C2)[C@@H]1CCOC3 (racemic) [(±)-XIV, 17-Cyclobutylmethyl-3-hydroxy-6-oxamorphinan]",ED50,[1]; [9],0.015 mg/kg
same,ED50,[2]; [10],~6 mg/kg
"COc1ccc2c(c1)[C@]13CCN(CC4CC4)[C@H](C2)[C@@H]1CCOC3 [(-)-X, (-)-17-Cyclopropylmethyl-3-methoxy-6-oxamorphinan]",ED50,[1]; [9],0.14 mg/kg
same,ED50,[2]; [10],~6 mg/kg
"Oc1ccc2c(c1)[C@]13CCN(CC4CC4)[C@H](C2)[C@@H]1CCOC3 [(-)-XI, (-)-17-Cyclopropylmethyl-3-hydroxy-6-oxamorphinan]",Predicted physical dependence liability in man,[3],nil or of a low order
same,ED50,[1]; [11],0.0012 mg/kg
same,ED50,[1]; [12],0.3 mg/kg
same,ED50,[1]; [9],0.028 mg/kg
same,ED50,[1]; [13],0.028 mg/kg
same,Mouse Writhing po/sc,"[1]; mouse, in vivo",11
same,sc/I. Vent.,"[1]; mouse, in vivo, sc",23
same,Substitution for morphine,[4]; 3 to 54 mg/kg sc,no evidence of substitution for morphine
same,Withdrawal jumping (primary physical dependence),[5],did not exhibit withdrawal jumping (abstinence)
same,ED50,Rat Writhing; [14],0.22 mg/kg
same,ED50,Rat Writhing; [15],0.021 mg/kg
same,Rat Writhing po/sc,Rat Writhing,11
same,ED50,[6]; [16],~3 mg/kg
same,ED50,[6]; [17],0.26 mg/kg
same,Morphine Antagonism Rat Tail Flick po/sc,[6],12
same,ED50,Rat Vocalization; [18],0.11 mg/kg
same,ED50,Rat Vocalization; [19],0.006 mg/kg
same,Rat Vocalization po/sc,Rat Vocalization,18
same,"Oral/parenteral analgetic potency ratio, comparison",[7],comparable to buprenorphine and approximately ten times better than butorphanol
same,"Oral analgetic potency, comparison",[7]; oral,markedly better than butorphanol and equivalent to buprenorphine
same,ED50,[2]; [10],0.44 mg/kg
same,ED50,[2]; [20],14 mg/kg
same,ED50,[2]; [21],0.44 mg/kg
same,Oxymorphone-Induced Straub Tail po/sc,[2]; Table 3,32
same,"Oral/parenteral potency ratio relative to antagonist activity, comparison",[8],superior to butorphanol and about equal to that of buprenorphine
same,Antagonist potency relative to butorphanol,[8]; blocking the effects of oxymorphone and morphine,about twice as potent as butorphanol
same,Percent Inhibition of Cough Response,"Cough Response; 0.005 mg/kg sc, 15 min",7%
same,Percent Inhibition of Cough Response,"Cough Response; 0.005 mg/kg sc, 30 min",52%
same,Percent Inhibition of Cough Response,"Cough Response; 0.005 mg/kg sc, 60 min",15%
same,Percent Inhibition of Cough Response,"Cough Response; 0.005 mg/kg sc, 120 min",41%
same,Percent Inhibition of Cough Response,"Cough Response; 0.005 mg/kg sc, 180 min",41%
same,Percent Inhibition of Cough Response,"Cough Response; 0.005 mg/kg sc, 240 min",37%
same,Percent Inhibition of Cough Response,"Cough Response; 0.005 mg/kg sc, 300 min",33%
same,Percent Inhibition of Cough Response,"Cough Response; 0.01 mg/kg sc, 15 min",38%
same,Percent Inhibition of Cough Response,"Cough Response; 0.01 mg/kg sc, 30 min",68%
same,Percent Inhibition of Cough Response,"Cough Response; 0.01 mg/kg sc, 60 min",86%
same,Percent Inhibition of Cough Response,"Cough Response; 0.01 mg/kg sc, 120 min",98%
same,Percent Inhibition of Cough Response,"Cough Response; 0.01 mg/kg sc, 180 min",62%
same,Percent Inhibition of Cough Response,"Cough Response; 0.01 mg/kg sc, 240 min",50%
same,Percent Inhibition of Cough Response,"Cough Response; 0.01 mg/kg sc, 300 min",24%
same,Percent Inhibition of Cough Response,"Cough Response; 0.02 mg/kg sc, 15 min",90%
same,Percent Inhibition of Cough Response,"Cough Response; 0.02 mg/kg sc, 30 min",99%
same,Percent Inhibition of Cough Response,"Cough Response; 0.02 mg/kg sc, 60 min",88%
same,Percent Inhibition of Cough Response,"Cough Response; 0.02 mg/kg sc, 120 min",70%
same,Percent Inhibition of Cough Response,"Cough Response; 0.02 mg/kg sc, 180 min",67%
same,Percent Inhibition of Cough Response,"Cough Response; 0.02 mg/kg sc, 240 min",67%
same,Percent Inhibition of Cough Response,"Cough Response; 0.02 mg/kg sc, 300 min",64%
same,Percent Inhibition of Cough Response,"Cough Response; 0.05 mg/kg sc, 15 min",100%
same,Percent Inhibition of Cough Response,"Cough Response; 0.05 mg/kg sc, 30 min",100%
same,Percent Inhibition of Cough Response,"Cough Response; 0.05 mg/kg sc, 60 min",100%
same,Percent Inhibition of Cough Response,"Cough Response; 0.05 mg/kg sc, 120 min",100%
same,Percent Inhibition of Cough Response,"Cough Response; 0.05 mg/kg sc, 180 min",100%
same,Percent Inhibition of Cough Response,"Cough Response; 0.05 mg/kg sc, 240 min",100%
same,Percent Inhibition of Cough Response,"Cough Response; 0.05 mg/kg sc, 300 min",100%
same,ED50,Cough Response; [22],0.04 mg/kg
same,ED50,Cough Response; [23],0.006 mg/kg
same,Antitussive potency relative to butorphanol,"Cough Response; dog, in vivo, po",8 times
same,Antitussive potency relative to morphine sulfate,"Cough Response; dog, in vivo, po",16 times
same,Antitussive potency relative to butorphanol,"Cough Response; dog, in vivo, sc",1.7 times
same,Antitussive potency relative to morphine sulfate,"Cough Response; dog, in vivo, sc",approximately 7 times
same,Duration of antitussive activity,"Cough Response; dog, in vivo, sc",significantly longer duration of activity than either butorphanol or morphine sulfate
same,Antitussive activity,"Cough Response; subcutaneous, unanesthetized dog",potent antitussive agent
CO[C@@]12CC[C@@]3(C[C@@H]1[C@](C)(O)C(C)(C)C)[C@H]1Cc4ccc(O)c5c4[C@@]3(CCN1CC1CC1)[C@H]2O5 [Buprenorphine],Predicted physical dependence liability in man,[3],morphine-like
same,ED50,[1]; [11],0.0004 mg/kg
same,ED50,[1]; [12],0.27 mg/kg
same,ED50,[1]; [13],0.021 mg/kg
same,Mouse Writhing po/sc,"[1]; ratio of ED50 po/sc, Table 2",13
same,sc/I. Vent.,[1]; [24],53
same,Substitution for morphine,"[4]; 1 mg/kg sc, or less",complete substitution for morphine
same,Withdrawal jumping (primary physical dependence),[5],did not exhibit withdrawal jumping (abstinence)
same,ED50,Rat Writhing; [14],0.16 mg/kg
same,ED50,Rat Writhing; [15],0.013 mg/kg
same,Rat Writhing po/sc,Rat Writhing,12
same,ED50,[6]; [16],0.92 mg/kg
same,ED50,[6]; [17],0.063 mg/kg
same,Morphine Antagonism Rat Tail Flick po/sc,[6],15
same,ED50,Rat Vocalization; [18],~0.08 mg/kg
same,ED50,Rat Vocalization; [19],0.005 mg/kg
same,Rat Vocalization po/sc,Rat Vocalization,~ 16
same,ED50,[2]; [21],0.46 mg/kg
Oc1ccc2c(c1)[C@@]13CCCC[C@@]1(O)[C@@H](C2)N(CC1CCC1)CC3 [Butorphanol],ED50,[1]; [11],0.0019 mg/kg
same,ED50,[1]; [12],5.1 mg/kg
same,ED50,[1]; [13],0.045 mg/kg
same,Blood-brain barrier penetration,"[1]; mouse, in vivo",penetrate the blood-brain barrier more readily than either morphine or buprenorphine and to about the same degree as each other
same,Mouse Writhing po/sc,"[1]; ratio of ED50 po/sc, Table 2",113
same,sc/I. Vent.,[1]; [24],24
same,ED50,Rat Writhing; [14],2.1 mg/kg
same,ED50,Rat Writhing; [15],0.04 mg/kg
same,Rat Writhing po/sc,Rat Writhing,53
same,ED50,[6]; [16],22 mg/kg
same,ED50,[6]; [17],0.43 mg/kg
same,Morphine Antagonism Rat Tail Flick po/sc,[6],51
same,ED50,Rat Vocalization; [18],0.83 mg/kg
same,ED50,Rat Vocalization; [19],0.012 mg/kg
same,Rat Vocalization po/sc,Rat Vocalization,69
same,ED50,[2]; [20],55 mg/kg
same,ED50,[2]; [21],0.98 mg/kg
same,Oxymorphone-Induced Straub Tail po/sc,[2]; Table 3,56
same,Percent Inhibition of Cough Response,"Cough Response; 0.1 mg/kg sc, 15 min",98%
same,Percent Inhibition of Cough Response,"Cough Response; 0.1 mg/kg sc, 30 min",96%
same,Percent Inhibition of Cough Response,"Cough Response; 0.1 mg/kg sc, 60 min",92%
same,Percent Inhibition of Cough Response,"Cough Response; 0.1 mg/kg sc, 120 min",84%
same,Percent Inhibition of Cough Response,"Cough Response; 0.1 mg/kg sc, 180 min",64%
same,Percent Inhibition of Cough Response,"Cough Response; 0.1 mg/kg sc, 240 min",41%
same,Percent Inhibition of Cough Response,"Cough Response; 0.1 mg/kg sc, 300 min",28%
same,ED50,Cough Response; [22],0.32 mg/kg
same,ED50,Cough Response; [23],0.01 mg/kg
CN1CC[C@]23c4c5ccc(O)c4O[C@H]2[C@@H](O)C=C[C@H]3[C@H]1C5 [Morphine SO4],ED50,[1]; [11],0.0032 mg/kg
same,ED50,[1]; [12],3.1 mg/kg
same,ED50,[1]; [13],0.26 mg/kg
same,Mouse Writhing po/sc,"[1]; mouse, in vivo",12
same,ED50,Rat Writhing; [14],1.6 mg/kg
same,ED50,Rat Writhing; [15],0.16 mg/kg
same,Rat Writhing po/sc,Rat Writhing,10
same,ED50,Rat Vocalization; [18],2.1 mg/kg
same,ED50,Rat Vocalization; [19],0.19 mg/kg
same,Rat Vocalization po/sc,Rat Vocalization,11
same,Oral antitussive ED50,"Cough Response; dog, in vivo, po",0.62 mg/kg
same,Antitussive ED50,"Cough Response; dog, in vivo, sc",0.04 mg/kg
"C=CCN1CC[C@]23c4c5ccc(O)c4O[C@H]2C(=O)CC[C@@]3(O)[C@H]1C5 [Naloxone, reference compound]",ED50,[6]; [16],2.7 mg/kg
same,ED50,[6]; [17],0.01 mg/kg
same,Morphine Antagonism Rat Tail Flick po/sc,[6],270
same,ED50,[2]; [20],13 mg/kg
same,ED50,[2]; [21],0.09 mg/kg
same,Oxymorphone-Induced Straub Tail po/sc,[2]; Table 3,144
